Article PMC10175918 (Communications Biology, 2023)
Like-named read-outs stand apart in the source and are kept apart here.

Key:
Experiment in all cases: TGFα-shedding assay-based GPCR screening with chimeric Gα subunit proteins
Type in all cases: cell-based
348 GPCRs [1] = target: T1, 348 GPCRs (Homo sapiens, UniProt Q5T6X5); details: 10µM, Favipiravir 100μM
T1 construct: expressed in transfected cells; host or cells: HEK293A
T1 sequence (Q5T6X5 19-926): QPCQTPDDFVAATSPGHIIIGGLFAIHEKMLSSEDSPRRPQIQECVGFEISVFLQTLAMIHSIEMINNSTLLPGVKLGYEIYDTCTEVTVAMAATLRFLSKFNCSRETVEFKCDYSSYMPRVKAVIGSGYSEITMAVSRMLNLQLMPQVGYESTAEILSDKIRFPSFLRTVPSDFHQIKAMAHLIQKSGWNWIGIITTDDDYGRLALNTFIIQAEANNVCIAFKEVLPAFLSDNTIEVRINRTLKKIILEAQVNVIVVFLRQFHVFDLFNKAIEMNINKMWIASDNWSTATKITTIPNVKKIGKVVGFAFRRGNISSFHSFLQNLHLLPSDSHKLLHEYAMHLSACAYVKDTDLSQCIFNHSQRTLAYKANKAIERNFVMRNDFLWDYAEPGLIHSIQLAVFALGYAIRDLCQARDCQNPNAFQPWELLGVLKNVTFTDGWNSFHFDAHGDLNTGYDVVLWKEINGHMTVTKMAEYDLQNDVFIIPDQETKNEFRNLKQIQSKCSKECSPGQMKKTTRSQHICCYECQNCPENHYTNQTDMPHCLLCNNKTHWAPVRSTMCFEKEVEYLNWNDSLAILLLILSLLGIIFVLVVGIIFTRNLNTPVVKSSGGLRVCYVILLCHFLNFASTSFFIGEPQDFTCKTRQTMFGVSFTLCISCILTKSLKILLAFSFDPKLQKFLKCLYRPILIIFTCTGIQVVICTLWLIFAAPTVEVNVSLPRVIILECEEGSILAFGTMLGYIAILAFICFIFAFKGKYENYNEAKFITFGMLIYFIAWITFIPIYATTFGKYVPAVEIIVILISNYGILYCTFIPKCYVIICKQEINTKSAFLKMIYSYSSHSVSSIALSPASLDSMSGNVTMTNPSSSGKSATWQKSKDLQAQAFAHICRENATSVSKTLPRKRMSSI

348 GPCRs [2] = target: T2, 348 GPCRs (Homo sapiens, UniProt O00398)
T2 construct: expressed in transfected cells; host or cells: HEK293A
T2 sequence (O00398 whole entry): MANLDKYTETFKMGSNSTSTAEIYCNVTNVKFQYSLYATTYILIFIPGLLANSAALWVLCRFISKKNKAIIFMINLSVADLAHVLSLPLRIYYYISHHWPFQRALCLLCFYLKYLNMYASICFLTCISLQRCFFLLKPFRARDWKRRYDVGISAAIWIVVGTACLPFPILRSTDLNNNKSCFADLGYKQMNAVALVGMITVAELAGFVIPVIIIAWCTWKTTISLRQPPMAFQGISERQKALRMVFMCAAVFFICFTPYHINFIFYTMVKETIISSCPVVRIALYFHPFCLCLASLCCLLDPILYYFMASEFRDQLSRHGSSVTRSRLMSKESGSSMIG

348 GPCRs [3] = target: 348 GPCRs (Homo sapiens, UniProt P31391); details: 10µM, Favipiravir 100μM
Chain of 348 GPCRs (Homo sapiens, UniProt P31391) (P31391 whole entry): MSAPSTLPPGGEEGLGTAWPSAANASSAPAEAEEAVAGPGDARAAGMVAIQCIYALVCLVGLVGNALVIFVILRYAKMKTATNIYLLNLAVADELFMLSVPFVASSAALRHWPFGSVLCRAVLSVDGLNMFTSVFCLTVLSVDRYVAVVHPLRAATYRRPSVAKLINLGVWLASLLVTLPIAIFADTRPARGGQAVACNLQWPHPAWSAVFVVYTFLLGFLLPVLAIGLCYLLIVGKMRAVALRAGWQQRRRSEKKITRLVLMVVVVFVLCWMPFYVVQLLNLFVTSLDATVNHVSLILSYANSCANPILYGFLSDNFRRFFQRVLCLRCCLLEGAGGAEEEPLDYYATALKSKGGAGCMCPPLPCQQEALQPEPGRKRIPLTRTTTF

348 GPCRs [4] = target: T3, 348 GPCRs (Homo sapiens, UniProt Q9GZN0); details: 10µM, Favipiravir 100μM
T3 construct: expressed in transfected cells; host or cells: HEK293A
T3 sequence (Q9GZN0 whole entry): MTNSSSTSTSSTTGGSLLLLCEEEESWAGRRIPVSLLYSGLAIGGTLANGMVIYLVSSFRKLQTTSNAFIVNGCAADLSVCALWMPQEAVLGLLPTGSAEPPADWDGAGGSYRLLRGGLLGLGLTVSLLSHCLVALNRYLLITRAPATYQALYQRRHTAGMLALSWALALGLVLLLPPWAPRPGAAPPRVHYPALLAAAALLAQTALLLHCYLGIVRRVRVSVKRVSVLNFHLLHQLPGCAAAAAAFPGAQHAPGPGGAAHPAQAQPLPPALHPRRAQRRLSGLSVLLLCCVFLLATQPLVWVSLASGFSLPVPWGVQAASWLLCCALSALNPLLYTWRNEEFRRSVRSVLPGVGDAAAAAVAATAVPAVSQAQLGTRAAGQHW

348 GPCRs [5] = target: T4, 348 GPCRs (Homo sapiens, UniProt P48544); details: 10µM, Favipiravir 100μM
T4 construct: expressed in transfected cells; host or cells: HEK293A
T4 sequence (P48544 1-419): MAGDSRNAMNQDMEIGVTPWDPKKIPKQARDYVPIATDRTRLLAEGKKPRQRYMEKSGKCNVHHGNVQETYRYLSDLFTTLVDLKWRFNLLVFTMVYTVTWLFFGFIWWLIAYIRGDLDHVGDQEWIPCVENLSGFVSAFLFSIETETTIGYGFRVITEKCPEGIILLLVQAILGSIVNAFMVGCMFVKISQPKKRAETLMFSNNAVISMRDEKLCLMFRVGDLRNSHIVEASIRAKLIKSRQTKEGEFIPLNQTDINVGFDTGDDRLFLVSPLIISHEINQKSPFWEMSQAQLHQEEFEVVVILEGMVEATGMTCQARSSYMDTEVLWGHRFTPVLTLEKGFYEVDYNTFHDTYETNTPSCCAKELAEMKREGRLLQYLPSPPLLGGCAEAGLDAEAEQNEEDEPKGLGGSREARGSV

348 GPCRs [6] = target: T5, 348 GPCRs (Homo sapiens, UniProt Q14833); details: 10µM, Favipiravir 100μM
T5 construct: expressed in transfected cells; host or cells: HEK293A
T5 sequence (Q14833 33-912): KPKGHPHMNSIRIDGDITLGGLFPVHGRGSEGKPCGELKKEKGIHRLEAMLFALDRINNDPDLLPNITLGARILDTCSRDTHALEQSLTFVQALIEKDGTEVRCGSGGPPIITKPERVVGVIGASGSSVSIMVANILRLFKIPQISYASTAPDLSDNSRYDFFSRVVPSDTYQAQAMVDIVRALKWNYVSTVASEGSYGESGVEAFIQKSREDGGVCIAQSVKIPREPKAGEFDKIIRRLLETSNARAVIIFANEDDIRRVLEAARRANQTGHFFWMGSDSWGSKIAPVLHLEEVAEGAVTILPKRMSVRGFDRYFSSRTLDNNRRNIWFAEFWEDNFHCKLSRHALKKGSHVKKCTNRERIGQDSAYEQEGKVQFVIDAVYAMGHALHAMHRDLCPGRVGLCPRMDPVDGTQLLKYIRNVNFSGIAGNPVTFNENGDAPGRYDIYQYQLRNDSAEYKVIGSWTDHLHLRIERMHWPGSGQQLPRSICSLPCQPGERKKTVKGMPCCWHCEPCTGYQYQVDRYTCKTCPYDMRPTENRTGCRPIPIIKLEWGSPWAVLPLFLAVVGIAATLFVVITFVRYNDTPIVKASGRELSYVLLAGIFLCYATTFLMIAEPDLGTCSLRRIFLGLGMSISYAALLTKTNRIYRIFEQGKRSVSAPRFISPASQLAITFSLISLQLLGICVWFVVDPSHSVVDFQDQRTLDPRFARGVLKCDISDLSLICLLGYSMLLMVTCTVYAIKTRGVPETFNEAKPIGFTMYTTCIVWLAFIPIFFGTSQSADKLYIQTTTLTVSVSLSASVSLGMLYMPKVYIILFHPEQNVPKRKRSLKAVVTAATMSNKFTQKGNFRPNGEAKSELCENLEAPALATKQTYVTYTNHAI

348 GPCRs [7] = target: T6, 348 GPCRs (Homo sapiens, UniProt Q6NV75); details: 10µM, Favipiravir 100μM
T6 construct: expressed in transfected cells; host or cells: HEK293A
T6 sequence (Q6NV75 whole entry): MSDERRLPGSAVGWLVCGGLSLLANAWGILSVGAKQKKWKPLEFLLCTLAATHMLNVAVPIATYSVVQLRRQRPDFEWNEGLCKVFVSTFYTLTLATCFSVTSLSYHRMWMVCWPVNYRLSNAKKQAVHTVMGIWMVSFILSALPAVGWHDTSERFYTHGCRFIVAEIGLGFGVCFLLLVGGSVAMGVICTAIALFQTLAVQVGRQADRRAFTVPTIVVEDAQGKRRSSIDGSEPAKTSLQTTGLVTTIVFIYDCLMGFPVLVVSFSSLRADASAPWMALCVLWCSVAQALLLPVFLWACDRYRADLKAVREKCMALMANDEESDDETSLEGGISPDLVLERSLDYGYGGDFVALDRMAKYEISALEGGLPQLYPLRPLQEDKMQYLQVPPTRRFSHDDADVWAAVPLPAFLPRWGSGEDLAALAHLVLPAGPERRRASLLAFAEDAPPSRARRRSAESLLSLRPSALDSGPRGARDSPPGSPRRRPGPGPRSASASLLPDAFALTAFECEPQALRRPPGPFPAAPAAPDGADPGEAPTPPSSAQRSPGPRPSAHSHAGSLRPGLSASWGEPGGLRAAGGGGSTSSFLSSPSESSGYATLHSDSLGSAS

348 GPCRs [8] = target: T7, 348 GPCRs (Homo sapiens, UniProt P33032)
T7 construct: expressed in transfected cells; host or cells: HEK293A
T7 sequence (P33032 whole entry): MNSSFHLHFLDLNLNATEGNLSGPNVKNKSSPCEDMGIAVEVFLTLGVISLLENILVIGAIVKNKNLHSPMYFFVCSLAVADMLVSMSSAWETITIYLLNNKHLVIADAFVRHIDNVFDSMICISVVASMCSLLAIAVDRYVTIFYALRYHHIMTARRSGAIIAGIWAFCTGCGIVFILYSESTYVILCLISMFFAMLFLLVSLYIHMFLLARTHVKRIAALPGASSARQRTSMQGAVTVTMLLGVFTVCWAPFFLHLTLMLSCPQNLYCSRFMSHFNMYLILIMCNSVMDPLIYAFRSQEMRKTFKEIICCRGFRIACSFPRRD

[9] = GPRC6A (G protein-coupled receptor, family C, group 6, member A), read-out: % GPCR activation compared to TPA
[10] = GPCR P2RY10 (purinergic receptor P2Y, G-protein coupled, 10), read-out: % GPCR activation compared to TPA
[11] = SSTR4 (somatostatin receptor 4), read-out: % GPCR activation compared to TPA
[12] = GPR88 (G Protein-Coupled Receptor 88), read-out: % GPCR activation compared to TPA
[13] = KCNJ5 (potassium inwardly rectifying channel, subfamily J, member 5), read-out: % GPCR activation compared to TPA
[14] = GRM4 (glutamate receptor, metabotropic 4), read-out: % GPCR activation compared to TPA
[15] = GPR153 (G protein-coupled receptor 153), read-out: % GPCR activation compared to TPA
[16] = GPCR MC5R (melanocortin 5 receptor), read-out: % GPCR activation compared to TPA
[17] = read-out: % GPCR activation compared to TPA, GPRC6A (G protein-coupled receptor, family C, group 6, member A)
[18] = read-out: % GPCR activation compared to TPA, GPCR P2RY10 (purinergic receptor P2Y, G-protein coupled, 10)
[19] = read-out: % GPCR activation compared to TPA, SSTR4 (somatostatin receptor 4)
[20] = read-out: % GPCR activation compared to TPA, GPR88 (G Protein-Coupled Receptor 88)
[21] = read-out: % GPCR activation compared to TPA, KCNJ5 (potassium inwardly rectifying channel, subfamily J, member 5)
[22] = read-out: % GPCR activation compared to TPA, GRM4 (glutamate receptor, metabotropic 4)
[23] = read-out: % GPCR activation compared to TPA, GPR153 (G protein-coupled receptor 153)
[24] = read-out: % GPCR activation compared to TPA, GPCR MC5R (melanocortin 5 receptor)

| activation at 10 µM (348 GPCRs [1]; [9]) | activation at 10 µM (348 GPCRs [2]; [10]) | activation at 10 µM (348 GPCRs [3]; [11]) | activation at 100 µM (348 GPCRs [4]; [12]) | activation at 100 µM (348 GPCRs [5]; [13]) | activation at 10 µM (348 GPCRs [6]; [14]) | activation at 10 µM (348 GPCRs [7]; [15]) | activation at 10 µM (348 GPCRs [8]; [16]) | activation at 100 µM (348 GPCRs [2]; GPCR P2RY10 (purinergic receptor P2Y, G-protein coupled, 10), 100μM, read-out: % GPCR activation compared to TPA) | activation at 100 µM (348 GPCRs [8]; GPCR MC5R (melanocortin 5 receptor), 100μM, read-out: % GPCR activation compared to TPA) | Compound | activation at 10 µM (348 GPCRs [1]; [17]) | activation at 10 µM (348 GPCRs [2]; [18]) | activation at 10 µM (348 GPCRs [3]; [19]) | activation at 100 µM (348 GPCRs [4]; [20]) | activation at 100 µM (348 GPCRs [5]; [21]) | activation at 10 µM (348 GPCRs [6]; [22]) | activation at 10 µM (348 GPCRs [7]; [23]) | activation at 10 µM (348 GPCRs [8]; [24]) |
| --- | --- | --- | --- | --- | --- | --- | --- | --- | --- | --- | --- | --- | --- | --- | --- | --- | --- | --- |
| -1.11% | -1.36% | -0.36% | -2.34% | 1.89% | 1.52% | -3.34% | 0.908% |  |  | N#C[C@@]1(c2ccc3c(N)ncnn23)O[C@H](CO)[C@@H](O)[C@H]1O [GS441524] |  |  |  |  |  |  |  |  |
| -1.55% |  | -0.164% | -1.1% | -1.78% | 1.65% | 0.731% |  | -0.745% | -0.921% | NC(=O)c1nc(F)cnc1O [favipiravir, 6-fluoro-3-hydroxy-2-pyrazinecarboxamide] |  |  |  |  |  |  |  |  |
| -1.51% | -1.61% | -1.09% | -1.19% | -0.841% | -0.478% | -23.6% | -1.47% |  |  | CC(C)C(=O)OC[C@H]1O[C@@H](n2ccc(NO)nc2=O)[C@H](O)[C@@H]1O [molnupiravir] |  |  |  |  |  |  |  |  |
|  |  |  |  |  |  |  |  |  |  | CCC(CC)COC(=O)[C@H](C)N[P@](=O)(OC[C@H]1O[C@@](C#N)(c2ccc3c(N)ncnn23)[C@H](O)[C@@H]1O)Oc1ccccc1 [remdesivir] | -2.47% | -1.53% | 0.732% | -0.608% | 1.55% | -0.0103% | 4.65% | 1.31% |
|  |  |  |  |  |  |  |  |  |  | CC(C)OC(=O)[C@H](C)N[P@](=O)(OC[C@H]1O[C@@H](n2ccc(=O)[nH]c2=O)[C@](C)(F)[C@@H]1O)Oc1ccccc1 [sofosbuvir] | 0.803% | 0.334% | 0.279% | -0.818% | -2.66% | 2.56% | -14.2% | -2.87% |
